Columns and labels:
[1] = target: T1, BTK enzyme (recombinant full-length BTK, hBTK) (Homo sapiens, UniProt Q06187); assay: BTK enzyme activity assay, LANCE TR-FRET; format: biochemical; settings: 50 pM hBTK, 2 μM biotin-A5-peptide, 25 μM ATP; 60 min compound & enzyme incubation; read-out: IC50 BTK activity value
T1 construct: recombinant protein from baculovirus-transfected Sf9 cells: full-length BTK, 6HIS-tag cleaved; 6HIS (cleaved yes); made in house; host or cells: baculovirus-transfected Sf9 cells

[2] = system: HeLa cells; assay: [3H]Adenosine uptake functional cellular assay; format: cell-based; settings: Homo sapiens, HeLa, accumulation of [3H]adenosine into HeLa cells; compound range 10 μM to […]; read-out: Adenosine uptake inhibition IC50
Experimental: Compounds are also screened in an adenosine uptake functional cellular assay using the protocol described below. The adenosine uptake inhibition assay may be used to identify compounds with the potential for a negative cardiovascular side effect.
Adenosine uptake activity was determined by monitoring the accumulation of tritiated adenosine into HeLa cells (ATCC catalog # CCL-2) using a PMT-based radiometric detection instrument. […] These cells were incubated overnight at 37° C. in a humidified atmosphere with 5% (v/v) CO2. After this time the growth medium was removed and replaced with 40 μL assay medium comprising: Hanks balanced salts solution (HBSS; Thermo Fisher Catalog # SH30268.01)+5% (v/v) FBS. […] 40 μL of compound in the assay medium was dispensed into individual wells of the Cytostar-T plates and the plates were incubated for 30 minutes under ambient laboratory conditions. Following this incubation, 20 μL of 500 nM [^3H]adenosine (American Radiolabeled Chemicals Inc. Catalog # ART0287) was added in the assay medium and incubated for a further 60 minutes under ambient laboratory conditions. The amount of radiolabel accumulation was then determined using a Perkin Elmer Topcount NXT microplate reader. In brief, HeLa cells adhere to the bottom of the Cytostar-T plate, uptake of [^3H]adenosine into these cells brings the radiolabel into sufficient proximity to excite the scintillant in the base of the plates. These events are captured by single PMT, time-resolved coincidence counting. IC50 values were determined by 4 parameter robust fit of counts per second values vs. (Log10) compound concentrations.

T1 sequence (Q06187 whole entry): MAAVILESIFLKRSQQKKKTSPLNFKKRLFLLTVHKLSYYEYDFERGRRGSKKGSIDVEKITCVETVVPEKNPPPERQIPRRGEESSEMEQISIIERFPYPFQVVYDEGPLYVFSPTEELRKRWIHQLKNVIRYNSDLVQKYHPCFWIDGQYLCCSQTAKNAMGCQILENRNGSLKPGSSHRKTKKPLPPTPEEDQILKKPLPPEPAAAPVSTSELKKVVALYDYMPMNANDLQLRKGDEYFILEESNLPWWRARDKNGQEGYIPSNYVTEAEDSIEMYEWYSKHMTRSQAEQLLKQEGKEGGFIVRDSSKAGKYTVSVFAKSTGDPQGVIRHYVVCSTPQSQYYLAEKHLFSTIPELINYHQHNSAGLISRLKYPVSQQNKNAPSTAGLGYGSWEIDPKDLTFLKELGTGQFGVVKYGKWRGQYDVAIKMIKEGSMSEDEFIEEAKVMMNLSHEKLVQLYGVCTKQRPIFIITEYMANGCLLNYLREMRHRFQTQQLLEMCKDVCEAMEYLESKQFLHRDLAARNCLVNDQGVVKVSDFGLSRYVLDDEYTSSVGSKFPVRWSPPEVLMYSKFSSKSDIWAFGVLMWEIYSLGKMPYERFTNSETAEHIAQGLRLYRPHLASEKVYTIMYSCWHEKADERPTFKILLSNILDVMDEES

| IC50 [1] [nM] | IC50 [2] [nM] | SMILES |
| --- | --- | --- |
| 0.11 | 4.13 | Nc1nccn2c([C@@H]3CC[C@H]4CCC(=O)N4C3)nc(-c3ccc(C(=O)Nc4cc(C(F)(F)F)ccn4)cc3F)c12 [Example 23, 4-{8-amino-3-[(6R,8aS)-3-oxooctahydroindolizin-6-yl]imidazo[1,5-a]pyrazin-1-yl}-3-fluoro-N-[4-(trifluoromethyl)pyridin-2-yl]benzamide] |
| 0.17 | 90.4 | C[C@@H]1OC(=O)N2C[C@H](c3nc(-c4ccc(C(=O)Nc5cc(C(F)(F)F)ccn5)cc4F)c4c(N)nccn34)CC[C@@H]12 [Example 33, 4-{8-amino-3-[(1S,6R,8aS)-1-methyl-3-oxohexahydro[1,3]oxazolo[3,4-a]pyridin-6-yl]imidazo[1,5-a]pyrazin-1-yl}-3-fluoro-N-[4-(trifluoromethyl)pyridin-2-yl]benzamide] |
| 0.12 | 57.4 | Nc1nccn2c([C@@H]3CC[C@H]4COCC(=O)N4C3)nc(-c3ccc(C(=O)Nc4cc(C(F)(F)F)ccn4)cc3F)c12 [Example 39] |
| 4 | 793 | Nc1nccn2c([C@H]3CC[C@@H]4CNCC(=O)N4C3)nc(-c3ccc(C(=O)Nc4cc(C(F)(F)F)ccn4)cc3)c12 [Example 41, 4-{8-amino-3-[(7S,9aR)-4-oxooctahydro-2H-pyrido[1,2-a]pyrazin-7-yl]imidazo[1,5-a]pyrazin-1-yl}-N-[4-(trifluoromethyl)pyridin-2-yl]benzamide] |
| 0.095 | 88.8 | Nc1nccn2c([C@H]3CC[C@@H]4CCCC(=O)N4C3)nc(-c3ccc(C(=O)Nc4cc(C(F)(F)F)ccn4)cc3F)c12 [Example 44, 4-{8-amino-3-[(3S,9aS)-6-oxooctahydro-2H-quinolizin-3-yl]imidazo[1,5-a]pyrazin-1-yl}-3-fluoro-N-[4-(trifluoromethyl)pyridin-2-yl]benzamide] |
| 0.53 | 71.3 | C[C@@H]1OC(=O)N2C[C@H](c3nc(-c4ccc(C(=O)Nc5cc(C6CC6)ccn5)cc4)c4c(N)nccn34)CC[C@@H]12 [Example 46, 4-{8-amino-3-[(1S,6R,8aS)-1-methyl-3-oxohexahydro[1,3]oxazolo[3,4-a]pyridin-6-yl]imidazo[1,5-a]pyrazin-1-yl}-N-(4-cyclopropylpyridin-2-yl)benzamide] |
| 0.14 | 92.6 | C[C@@H]1OC(=O)N2C[C@H](c3nc(-c4ccc(C(=O)Nc5cc(C(F)(F)F)ccn5)cc4)c4c(N)nccn34)CC[C@@H]12 [Example 48, 4-{8-amino-3-[(1S,6R,8aS)-1-methyl-3-oxohexahydro[1,3]oxazolo[3,4-a]pyridin-6-yl]imidazo[1,5-a]pyrazin-1-yl}-N-[4-(trifluoromethyl)pyridin-2-yl]benzamide] |
| 4.1 | 811 | Nc1nccn2c([C@H]3CC[C@@H]4C[C@H](O)C(=O)N4C3)nc(-c3ccc(C(=O)Nc4cc(C(F)(F)F)ccn4)cc3)c12 [Example 58, 4-{8-amino-3-[(2S,6S,8aR)-2-hydroxy-3-oxooctahydroindolizin-6-yl]imidazo[1,5-a]pyrazin-1-yl}-N-[4-(trifluoromethyl)pyridin-2-yl]benzamide] |

Second part, the molecule before the results:

| SMILES | IC50 [1] [nM] | IC50 [2] [nM] |
| --- | --- | --- |
| Nc1nccn2c([C@@H]3CC[C@H]4CCC(=O)N4C3)nc(-c3ccc(C(=O)Nc4cc(C(F)(F)F)ccn4)c(F)c3)c12 [Example 24, 4-{8-amino-3-[(6R,8aS)-3-oxooctahydroindolizin-6-yl]imidazo[1,5-a]pyrazin-1-yl}-2-fluoro-N-[4-(trifluoromethyl)pyridin-2-yl]benzamide] | 0.45 | 67 |
| C[C@H]1OC(=O)N2C[C@H](c3nc(-c4ccc(C(=O)Nc5cc(C(F)(F)F)ccn5)cc4F)c4c(N)nccn34)CC[C@@H]12 [Example 31, 4-{8-amino-3-[(1R,6R,8aS)-1-methyl-3-oxohexahydro[1,3]oxazolo[3,4-a]pyridin-6-yl]imidazo[1,5-a]pyrazin-1-yl}-3-fluoro-N-[4-(trifluoromethyl)pyridin-2-yl]benzamide] | 0.096 | 104 |
| COc1cc(C(=O)Nc2cc(C3CC3)ccn2)ccc1-c1nc([C@@H]2CC[C@H]3CCC(=O)N3C2)n2ccnc(N)c12 [Example 38, 4-{8-amino-3-[(6R,8aS)-3-oxooctahydroindolizin-6-yl]imidazo[1,5-a]pyrazin-1-yl}-N-(4-cyclopropylpyridin-2-yl)-3-methoxybenzamide] | 1.9 | 543 |
| Nc1nccn2c([C@@H]3CC[C@H]4CNCC(=O)N4C3)nc(-c3ccc(C(=O)Nc4cc(C(F)(F)F)ccn4)cc3)c12 [Example 40, 4-{8-amino-3-[(7R,9aS)-4-oxooctahydro-2H-pyrido[1,2-a]pyrazin-7-yl]imidazo[1,5-a]pyrazin-1-yl}-N-[4-(trifluoromethyl)pyridin-2-yl]benzamide] | 0.22 | 186 |
| Nc1nccn2c([C@@H]3CC[C@H]4CCC(=O)N4C3)nc(-c3ccc(C(=O)Nc4cc(C(F)(F)F)ccn4)c(Cl)c3)c12 [Example 42, 4-{8-amino-3-[(6R,8aS)-3-oxooctahydroindolizin-6-yl]imidazo[1,5-a]pyrazin-1-yl}-2-chloro-N-[4-(trifluoromethyl)pyridin-2-yl]benzamide] | 0.52 | 88 |
| Nc1nccn2c([C@@H]3CC[C@H]4CCCC(=O)N4C3)nc(-c3ccc(C(=O)Nc4cc(C(F)(F)F)ccn4)cc3F)c12 [Example 45, 4-{8-amino-3-[(3R,9aR)-6-oxooctahydro-2H-quinolizin-3-yl]imidazo[1,5-a]pyrazin-1-yl}-3-fluoro-N-[4-(trifluoromethyl)pyridin-2-yl]benzamide] | 1.7 | 227 |
| C[C@H]1OC(=O)N2C[C@H](c3nc(-c4ccc(C(=O)Nc5cc(C6CC6)ccn5)cc4)c4c(N)nccn34)CC[C@@H]12 [Example 47, 4-{8-amino-3-[(1R,6R,8aS)-1-methyl-3-oxohexahydro[1,3]oxazolo[3,4-a]pyridin-6-yl]imidazo[1,5-a]pyrazin-1-yl}-N-(4-cyclopropylpyridin-2-yl)benzamide] | 0.17 | 31.8 |
| C[C@H]1OC(=O)N2C[C@H](c3nc(-c4ccc(C(=O)Nc5cc(C(F)(F)F)ccn5)cc4)c4c(N)nccn34)CC[C@@H]12 [Example 49, 4-{8-amino-3-[(1R,6R,8aS)-1-methyl-3-oxohexahydro[1,3]oxazolo[3,4-a]pyridin-6-yl]imidazo[1,5-a]pyrazin-1-yl}-N-[4-(trifluoromethyl)pyridin-2-yl]benzamide] | 0.11 | 51.8 |
| CN1CC(=O)N2C[C@H](c3nc(-c4ccc(C(=O)Nc5cc(C(F)(F)F)ccn5)cc4)c4c(N)nccn34)CC[C@H]2C1 [Example 50, 4-{8-amino-3-[(7R,9aS)-2-methyl-4-oxooctahydro-2H-pyrido[1,2-a]pyrazin-7-yl]imidazo[1,5-a]pyrazin-1-yl}-N-[4-(trifluoromethyl)pyridin-2-yl]benzamide] | 0.26 | 45.1 |
| CN1CC(=O)N2C[C@@H](c3nc(-c4ccc(C(=O)Nc5cc(C(F)(F)F)ccn5)cc4)c4c(N)nccn34)CC[C@@H]2C1 [Example 51, 4-{8-amino-3-[(7S,9aR)-2-methyl-4-oxooctahydro-2H-pyrido[1,2-a]pyrazin-7-yl]imidazo[1,5-a]pyrazin-1-yl}-N-[4-(trifluoromethyl)pyridin-2-yl]benzamide] | 1.6 | 188 |
| CC1(C)OC(=O)N2C[C@H](c3nc(-c4ccc(C(=O)Nc5cc(C(F)(F)F)ccn5)cc4)c4c(N)nccn34)CC[C@H]21 [Example 52, 4-{8-amino-3-[(6R,8aS)-1,1-dimethyl-3-oxohexahydro[1,3]oxazolo[3,4-a]pyridin-6-yl]imidazo[1,5-a]pyrazin-1-yl}-N-[4-(trifluoromethyl)pyridin-2-yl]benzamide] | 0.13 | 50.1 |
| COc1cc(C(=O)Nc2cc(C3CC3)ccn2)ccc1-c1nc([C@@H]2CC[C@H]3[C@@H](C)OC(=O)N3C2)n2ccnc(N)c12 [Example 53, 4-{8-amino-3-[(1R,6R,8aS)-1-methyl-3-oxohexahydro[1,3]oxazolo[3,4-a]pyridin-6-yl]imidazo[1,5-a]pyrazin-1-yl}-N-(4-cyclopropylpyridin-2-yl)-3-methoxybenzamide] | 0.5 | 296 |
| Nc1nccn2c([C@H]3CC[C@@H]4COCCN4C3)nc(-c3ccc(C(=O)Nc4cc(C(F)(F)F)ccn4)cc3)c12 [Example 56, 4-{8-amino-3-[(7S,9aR)-octahydropyrido[2,1-c][1,4]oxazin-7-yl]imidazo[1,5-a]pyrazin-1-yl}-N-[4-(trifluoromethyl)pyridin-2-yl]benzamide] | 1.8 | 114 |
| Nc1nccn2c([C@H]3CC[C@H]4CNCC(=O)N4C3)nc(-c3ccc(C(=O)Nc4cc(C(F)(F)F)ccn4)cc3)c12 [Example 57, 4-{8-amino-3-[(7S,9aS)-4-oxooctahydro-2H-pyrido[1,2-a]pyrazin-7-yl]imidazo[1,5-a]pyrazin-1-yl}-N-[4-(trifluoromethyl)pyridin-2-yl]benzamide] | 0.28 | ≥ 10000 |

From US20140206681A1, “BTK INHIBITORS” (priority 2013, published 2014)
